Assay results reported in PubChem BioAssay AID248 (DTP/NCI, 2004).
Toxic doses and inconclusive results are not listed.

Tested on: L1210 leukemia ip in BDF1 mice, survival T/C
Assay: NCI In Vivo Anticancer Drug Screen. Data for tumor model L1210 Leukemia (intraperitoneal) in B6D2F1 (BDF1) mice
Settings: endpoint: mean survival time, higher = longer survival
Summary of the method: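 Tumor was transplanted into mice, which were then dosed with test compound or vehicle alone. Survival was recorded for each group, and the treated figure was expressed relative to the control figure.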

[1] = dose: 100.0 mg/kg/injection, schedule: Q01DX009 (ip), vehicle: saline with Tween-80
[2] = dose: 100.0 mg/kg/injection, schedule: Q01DX001 (ip), vehicle: saline
[3] = dose: 200.0 mg/kg/injection, schedule: Q01DX001 (ip), vehicle: saline
[4] = dose: 400.0 mg/kg/injection, schedule: Q01DX001 (ip), vehicle: saline
[5] = dose: 100.0 mg/kg/injection, schedule: Q01DX001 (ip), vehicle: Klucel (hydroxypropylcellulose) (HPC)
[6] = dose: 200.0 mg/kg/injection, schedule: Q01DX001 (ip), vehicle: Klucel (hydroxypropylcellulose) (HPC)
[7] = dose: 100.0 mg/kg/injection, schedule: Q01DX009 (ip), vehicle: Klucel (hydroxypropylcellulose) (HPC)
[8] = dose: 100.0 mg/kg/injection, schedule: Q04DX003 (ip), vehicle: Klucel (hydroxypropylcellulose) (HPC)
[9] = dose: 200.0 mg/kg/injection, schedule: Q01DX009 (ip), vehicle: Klucel (hydroxypropylcellulose) (HPC)
[10] = dose: 200.0 mg/kg/injection, schedule: Q04DX003 (ip), vehicle: Klucel (hydroxypropylcellulose) (HPC)
[11] = dose: 400.0 mg/kg/injection, schedule: Q01DX009 (ip), vehicle: Klucel (hydroxypropylcellulose) (HPC)
[12] = dose: 400.0 mg/kg/injection, schedule: Q04DX003 (ip), vehicle: Klucel (hydroxypropylcellulose) (HPC)
[13] = dose: 100.0 mg/kg/injection, schedule: Q04DX002 (ip), vehicle: saline with Tween-80
[14] = dose: 200.0 mg/kg/injection, schedule: Q04DX002 (ip), vehicle: saline with Tween-80
[15] = dose: 400.0 mg/kg/injection, schedule: Q04DX002 (ip), vehicle: saline with Tween-80
[16] = dose: 50.0 mg/kg/injection, schedule: Q01DX001 (ip), vehicle: carboxymethylcellulose (CMC)
[17] = dose: 100.0 mg/kg/injection, schedule: Q01DX001 (ip), vehicle: carboxymethylcellulose (CMC)
[18] = dose: 200.0 mg/kg/injection, schedule: Q01DX001 (ip), vehicle: carboxymethylcellulose (CMC)
[19] = dose: 400.0 mg/kg/injection, schedule: Q01DX001 (ip), vehicle: carboxymethylcellulose (CMC)
[20] = dose: 6.25 mg/kg/injection, schedule: Q01DX009 (ip), vehicle: Klucel (hydroxypropylcellulose) (HPC)
[21] = dose: 12.5 mg/kg/injection, schedule: Q01DX009 (ip), vehicle: Klucel (hydroxypropylcellulose) (HPC)
[22] = dose: 400.0 mg/kg/injection, schedule: Q04DX003 (ip), vehicle: saline with Tween-80

N=C(OC1CCCCC1)N1CCOCC1
T/C (dose: 22.0 mg/kg/injection, schedule: Q01DX Z (ip), vehicle: saline): 100 % of control | T/C (dose: 33.0 mg/kg/injection, schedule: Q01DX Z (ip), vehicle: saline): 102 % of control | T/C (dose: 50.0 mg/kg/injection, schedule: Q01DX Z (ip), vehicle: saline): 106 % of control

O=C(O)/C=C/C(=O)Nc1ccc(Br)c(Cl)c1
T/C [1]: 86 % of control

O=C(O)c1cccc2c1-c1ccccc1/C2=N\O
T/C [2]: 100 % of control | T/C [3]: 110 % of control | T/C [4]: 104 % of control

CC(C)(NC(=O)NCCCl)C(=O)O
T/C [5]: 105 % of control | T/C [6]: 96 % of control | T/C (dose: 400.0 mg/kg/injection, schedule: Q01DX001 (ip), vehicle: Klucel (hydroxypropylcellulose) (HPC)): 94 % of control

c1ccc(CN=C(c2ccccc2)c2ccccc2)cc1
T/C [7]: 101 % of control | T/C [8]: 104 % of control | T/C [9]: 95 % of control | T/C [10]: 96 % of control | T/C [11]: 106 % of control | T/C [12]: 98 % of control

CC(=O)N(C)c1cc([N+](=O)[O-])ccc1OCc1ccccc1
T/C (dose: 50.0 mg/kg/injection, schedule: Q01DX001 (ip), vehicle: saline): 102 % of control | T/C [2]: 96 % of control

COC(=O)CCNCCSC(=O)c1ccccc1
T/C (dose: 100.0 mg/kg/injection, schedule: Q04DX003 (ip), vehicle: acetone): 103 % of control | T/C (dose: 200.0 mg/kg/injection, schedule: Q04DX003 (ip), vehicle: acetone): 105 % of control | T/C (dose: 400.0 mg/kg/injection, schedule: Q04DX003 (ip), vehicle: acetone): 102 % of control

CN(C(=O)c1ccc([N+](=O)[O-])cc1)C(c1ccco1)P(=O)(c1ccccc1)c1ccccc1 (stereo not drawn)
T/C [1]: 90 % of control | T/C [13]: 96 % of control | T/C (dose: 200.0 mg/kg/injection, schedule: Q01DX009 (ip), vehicle: saline with Tween-80): 87 % of control | T/C [14]: 86 % of control | T/C (dose: 400.0 mg/kg/injection, schedule: Q01DX009 (ip), vehicle: saline with Tween-80): 90 % of control | T/C [15]: 93 % of control

Cc1c([N+](=O)[O-])cc(C(C)(C)C)c(OC(=O)Nc2ccc(Cl)cc2)c1[N+](=O)[O-]
T/C [8]: 95 % of control | T/C [10]: 92 % of control

Cc1ccc(S(=O)(=O)C2=CC(=O)c3ccccc3C2=O)cc1
T/C (dose: 75.0 mg/kg/injection, schedule: Q01DX001 (ip), vehicle: other): 88 % of control

NCC1OC(n2cnc3c(N)ncnc32)CC1O (stereo not drawn)
T/C [16]: 107 % of control | T/C [17]: 107 % of control | T/C [18]: 109 % of control | T/C [19]: 104 % of control

O=C1O[C@@H]2[C@@H](I)[C@@H]3C[C@@H]2[C@@H]1C3
T/C (dose: 5.0 mg/kg/injection, schedule: Q01DX001 (ip), vehicle: carboxymethylcellulose (CMC)): 91 % of control | T/C (dose: 10.0 mg/kg/injection, schedule: Q01DX001 (ip), vehicle: carboxymethylcellulose (CMC)): 93 % of control | T/C (dose: 20.0 mg/kg/injection, schedule: Q01DX001 (ip), vehicle: carboxymethylcellulose (CMC)): 94 % of control | T/C (dose: 40.0 mg/kg/injection, schedule: Q01DX001 (ip), vehicle: carboxymethylcellulose (CMC)): 91 % of control | T/C (dose: 80.0 mg/kg/injection, schedule: Q01DX001 (ip), vehicle: carboxymethylcellulose (CMC)): 93 % of control

CC(C)C[n+]1cc([O-])on1
T/C [20]: 97 % of control | T/C [21]: 100 % of control

CN(C)N=Nc1ccc(S(=O)(=O)Nc2ncccn2)cc1
T/C [13]: 114 % of control | T/C (dose: 264.0 mg/kg/injection, schedule: Q04DX003 (ip), vehicle: saline with Tween-80): 100 % of control | T/C [15]: 177 % of control | T/C [22]: 105 % of control | T/C (dose: 400.0 mg/kg/injection, schedule: Q04DX003 (ip), vehicle: saline): 176 % of control | T/C (dose: 600.0 mg/kg/injection, schedule: Q04DX003 (ip), vehicle: saline): 124 % of control

ClC1(Cl)C2/C=C/CCCCC21 (stereo not drawn)
T/C (dose: 100.0 mg/kg/injection, schedule: Q01DX005 (ip), vehicle: saline with Tween-80): 105 % of control | T/C [13]: 92 % of control | T/C (dose: 200.0 mg/kg/injection, schedule: Q01DX005 (ip), vehicle: saline with Tween-80): 92 % of control | T/C [14]: 113 % of control | T/C (dose: 400.0 mg/kg/injection, schedule: Q01DX005 (ip), vehicle: saline with Tween-80): 92 % of control | T/C [15]: 95 % of control

O=C(OCc1ccccc1CN1CCCC1)c1cccc(Br)c1
T/C [5]: 95 % of control | T/C [6]: 98 % of control

COc1cc([N+](=O)[O-])c2nc(C(Br)(Br)Br)ccc2c1[N+](=O)[O-]
T/C [16]: 105 % of control | T/C [17]: 111 % of control | T/C [18]: 96 % of control | T/C [19]: 103 % of control

COc1ccc(OC)c(NC(=O)NCCCl)c1
T/C [8]: 101 % of control | T/C [10]: 98 % of control | T/C [12]: 87 % of control

O=C1NCC(Nc2ccc(Br)cc2Cl)C(=O)N1 (stereo not drawn)
T/C (dose: 100.0 mg/kg/injection, schedule: Q01DX Z (ip), vehicle: methylcellulose (MC)): 96 % of control | T/C (dose: 200.0 mg/kg/injection, schedule: Q01DX Z (ip), vehicle: methylcellulose (MC)): 90 % of control

COc1ccc(OC)c(C(=O)CC2OCCO2)c1
T/C [2]: 95 % of control | T/C [3]: 95 % of control | T/C [4]: 105 % of control

COc1cc(C)c2cccc(OC)c2n1
T/C [7]: 114 % of control | T/C [8]: 105 % of control | T/C [9]: 108 % of control | T/C [10]: 90 % of control | T/C [11]: 98 % of control | T/C [12]: 94 % of control

CCCC[S][Hg][I]
T/C (dose: 3.12 mg/kg/injection, schedule: Q01DX009 (ip), vehicle: Klucel (hydroxypropylcellulose) (HPC)): 98 % of control | T/C [20]: 98 % of control | T/C [21]: 110 % of control

CCOP(OCC)N1CCCCCC1=O
T/C (dose: 100.0 mg/kg/injection, schedule: Q04DX003 (ip), vehicle: saline with Tween-80): 100 % of control | T/C (dose: 200.0 mg/kg/injection, schedule: Q04DX003 (ip), vehicle: saline with Tween-80): 95 % of control | T/C [22]: 89 % of control

CN1CCN(C(=O)C2C(c3ccccc3)C2c2cccc(C(F)(F)F)c2)CC1 (stereo not drawn)
T/C [13]: 103 % of control | T/C [14]: 98 % of control | T/C [15]: 92 % of control

COc1ccc(C(=S)N2CCN(c3ccc(Cl)cc3)CC2)cc1
T/C [2]: 95 % of control | T/C [3]: 95 % of control | T/C [4]: 95 % of control

CCCCCCCCCCCCCCCCCCNC(=O)N1CCC(C)CC1
T/C (dose: 100.0 mg/kg/injection, schedule: Q04DX002 (ip), vehicle: Klucel (hydroxypropylcellulose) (HPC)): 97 % of control | T/C (dose: 200.0 mg/kg/injection, schedule: Q04DX002 (ip), vehicle: Klucel (hydroxypropylcellulose) (HPC)): 100 % of control | T/C (dose: 400.0 mg/kg/injection, schedule: Q04DX002 (ip), vehicle: Klucel (hydroxypropylcellulose) (HPC)): 97 % of control

CCc1ccc(NC(=O)Nc2ccccc2OC)cc1
T/C (dose: 100.0 mg/kg/injection, schedule: Q01DX009 (ip), vehicle: gum acacia): 97 % of control | T/C (dose: 100.0 mg/kg/injection, schedule: Q04DX003 (ip), vehicle: gum acacia): 98 % of control | T/C (dose: 200.0 mg/kg/injection, schedule: Q01DX009 (ip), vehicle: gum acacia): 94 % of control | T/C (dose: 200.0 mg/kg/injection, schedule: Q04DX003 (ip), vehicle: gum acacia): 92 % of control | T/C (dose: 400.0 mg/kg/injection, schedule: Q01DX009 (ip), vehicle: gum acacia): 91 % of control | T/C (dose: 400.0 mg/kg/injection, schedule: Q04DX003 (ip), vehicle: gum acacia): 104 % of control

Cn1c(=O)n(C)c2ccccc21
T/C (dose: 50.0 mg/kg/injection, schedule: Q01DX009 (ip), vehicle: saline): 110 % of control | T/C (dose: 100.0 mg/kg/injection, schedule: Q01DX009 (ip), vehicle: saline): 106 % of control | T/C (dose: 100.0 mg/kg/injection, schedule: Q04DX003 (ip), vehicle: saline): 108 % of control | T/C (dose: 200.0 mg/kg/injection, schedule: Q04DX003 (ip), vehicle: saline): 108 % of control
